According to patent US20130236441A1, “METHODS OF TREATING AND PREVENTING THROMBOTIC DISEASES USING ASK1 INHIBITORS” (University of Delaware, priority 2010, published 2013):

Tests used:
[1] = tested on: WT or Ask1−/− mouse platelets; experiment: 14C-serotonin release (dense granule secretion) from agonist-stimulated mouse platelets; assay type: cell-based; details: aspirin pretreatment
Protocol: (A) ^14C-serotonin-labeled platelets (2.5×10^8 per ml) from Ask1^+/+ and Ask1^−/− mice were stimulated with various concentration of thrombin for 5 min, and the ^14C-serotonin release was determined using a liquid scintillation counter. (B) Platelets from Ask1^+/+ and Ask1^−/− mice were stimulated with various concentrations of thrombin for 5 min and P-selectin exposure on the platelet surface was determined using flow cytometry. Granular secretion was assessed using WT or Ask1−/− mouse platelets in response to low and high dose of agonists such as thrombin (FIG. 7A) and thrombin/PAR4-peptide (AYPGKF) (FIG. 7B). Dense granule secretion was analyzed by measuring ^14C-serotonin release (FIG. 7A). α-granule secretion was assessed by P-selectin exposure using flow cytometry (FIG. 7B). Ask1 regulated a significant portion of dense granule secretion induced by high dose of thrombin (FIG. 7A). Similar results were obtained when P-selectin exposure was assessed as a measure of α-granule secretion (FIG. 7B).

ASK1 = ASK1 T838 phosphorylation in thrombin-stimulated washed human platelets (Western blot); assay type: cell-based; details: thrombin 0.05 U-1 U/ml
Protocol: Washed human platelets (2×10^8) were stimulated with thrombin (1 U/ml) for various time periods as indicated, and the lysates were Western blotted using phospho-specific antibodies against (A) ASK1, (B) MKK3 and P38, and (C) MKK4, and reprobed with corresponding antibodies against total proteins (Cell Signaling Technology, Inc.) to ensure relatively equal loading of ASK1, MKK3, P38 or MKK4 protein in each of its respective lanes.
A study was carried out to determine whether ASK1 was activated during agonist-induced platelet stimulation. A well-characterized antibody specific to the phosphorylated threonine 838 (T838) of ASK1 was used. […] Upon stimulation with as low as 0.05 U-1 U/ml of thrombin, ASK1 was activated rapidly and transiently as evidenced by phosphorylation of T838 (FIG. 3A). In a low percentage SDS-PAGE, ASK1 appeared as a doublet.

Compound | amount of serotonin released ([1]; Ask1−/− platelets) | amount of serotonin released ([1]; WT platelets) | ASK1 activation (phosphorylation of T838) (ASK1)
CC(=O)Oc1ccccc1C(=O)O [aspirin] | no effect | reduced the amount of serotonin released to that of Ask1−/− platelets | –
thrombin | – | – | dose-dependently activated
